From patent US20240228482A1, “COMPOUNDS, COMPOSITIONS AND METHODS OF TREATING CANCER” (HOTSPOT THERAPEUTICS, INC., priority 2021, published 2024)
pIC50: −log10 of the molar value.

Molecular target: T1, CBL-B (Homo sapiens, UniProt Q13191)
T1 construct: GST
Assay: CBL-B TR-FRET IC50 screening (E1/E2 ubiquitination, Biotin-Ubiquitin, Anti GST-Tb donor / Streptavidin-d2 acceptor)
Type: biochemical
Details: second part of Table 2 (head 'Patent Cmpd No / Updated Activity'); same CBL-B TR-FRET IC50 bins A-F; read-out: Updated Activity

T1 sequence (Q13191 whole entry): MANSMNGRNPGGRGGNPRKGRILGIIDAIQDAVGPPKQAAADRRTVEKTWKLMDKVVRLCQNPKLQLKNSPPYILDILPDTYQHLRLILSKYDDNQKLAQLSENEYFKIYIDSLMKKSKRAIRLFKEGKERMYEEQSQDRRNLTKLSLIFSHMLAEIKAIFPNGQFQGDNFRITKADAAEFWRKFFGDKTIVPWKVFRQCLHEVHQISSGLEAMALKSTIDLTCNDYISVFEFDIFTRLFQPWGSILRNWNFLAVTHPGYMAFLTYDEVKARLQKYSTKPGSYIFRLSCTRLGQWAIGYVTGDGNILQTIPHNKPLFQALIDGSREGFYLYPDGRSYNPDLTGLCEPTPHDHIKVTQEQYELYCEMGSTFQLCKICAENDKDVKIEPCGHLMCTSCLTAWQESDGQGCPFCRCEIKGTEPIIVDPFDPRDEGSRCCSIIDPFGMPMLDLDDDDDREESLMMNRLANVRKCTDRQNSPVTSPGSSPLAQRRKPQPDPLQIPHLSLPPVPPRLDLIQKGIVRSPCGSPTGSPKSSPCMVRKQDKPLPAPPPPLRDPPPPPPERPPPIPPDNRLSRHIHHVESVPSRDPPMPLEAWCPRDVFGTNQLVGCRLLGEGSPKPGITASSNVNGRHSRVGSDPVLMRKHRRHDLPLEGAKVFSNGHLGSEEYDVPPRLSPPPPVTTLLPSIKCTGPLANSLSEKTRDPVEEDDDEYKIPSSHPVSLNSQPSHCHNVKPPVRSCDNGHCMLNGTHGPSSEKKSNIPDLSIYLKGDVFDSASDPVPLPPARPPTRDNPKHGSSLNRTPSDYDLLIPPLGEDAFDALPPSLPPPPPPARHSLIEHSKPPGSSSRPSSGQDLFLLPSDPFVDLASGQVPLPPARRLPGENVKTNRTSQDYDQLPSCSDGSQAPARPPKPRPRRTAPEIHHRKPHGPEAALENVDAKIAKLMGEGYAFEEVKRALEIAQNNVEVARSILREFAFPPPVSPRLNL

| SMILES | pIC50 |
| --- | --- |
| C[C@@H]1CN(Cc2cc(C(F)(F)F)c3cn(-c4cccc([C@@H](c5nncn5C)C5CC5)c4)c(=O)n3c2)CCO1 [Compound 612_P1] | < 5.00 |
| C[C@@H]1CN(Cc2cc(C(F)(F)F)c3cn(-c4cccc([C@H](c5nncn5C)C5CC5)c4)c(=O)n3c2)CCO1 [Compound 612_P2] | > 7.00 |
| CN1CCC2(CN(Cc3cc(C(F)(F)F)c4cn(-c5cccc([C@H](c6nncn6C)C6CCC6)c5)c(=O)n4c3)C2)C1=O [Compound 622] | > 7.00 |
| C[C@H]1CCCN(Cc2cc(C(F)(F)F)c3cn(-c4cccc(C5(c6nncs6)CC(C)(C)C5)c4)c(=O)n3c2)C1 [Compound 624] | 6.00 to 6.52 |
| Cn1cnnc1[C@@H](c1cccc(-n2cc3c(C(F)(F)F)cc(CN4CCCC(n5cnnc5)C4)cn3c2=O)c1)C1CCC1 (stereo partly shown) [Compound 625] | > 7.00 |
| C[C@H]1CCCN(Cc2cc(C(F)(F)F)c3cn(-c4cccc(C5(c6nncs6)CCC5)c4)c(=O)n3c2)C1 [Compound 626] | > 7.00 |
| C[C@H]1CCCN(Cc2cc(C(F)(F)F)c3cn(-c4cc([C@@H](c5nncn5C)C5CCC5)ccn4)c(=O)n3c2)C1 [Compound 627_P1] | > 7.00 |
| C[C@H]1CCCN(Cc2cc(C(F)(F)F)c3cn(-c4cc([C@H](c5nncn5C)C5CCC5)ccn4)c(=O)n3c2)C1 [Compound 627_P2] | 5.52 to 6.00 |
| C[C@H]1CCCN(Cc2cc(C(F)(F)F)c3cn(-c4cncc([C@@H](c5nncn5C)C5CCC5)c4)c(=O)n3c2)C1 [Compound 628_P1] | > 7.00 |
| C[C@H]1CCCN(Cc2cc(C(F)(F)F)c3cn(-c4cncc([C@H](c5nncn5C)C5CCC5)c4)c(=O)n3c2)C1 [Compound 628_P2] | 5.00 to 5.52 |
